According to publication PMC6018633, “Structural bases of TRP channel TRPV6 allosteric modulation by 2-APB” (Nature Communications, 2018):

How the values were obtained:
[1] = test system: mouse TRPV3 (mTRPV3-Y564A); details: leftward shift of 2-APB concentration dependence; HEK 293 cells, Fura-2
Source text: (§1) Fig. 5 Probing of the 2-APB binding site in different TRPV channels. a–c Dose–response curves for 2-APB activation of wild-type (black) and mutant (red) rat TRPV1 (a), rat TRPV2 (b), and mouse TRPV3 (c) channels with alanine substitution of the conserved tyrosine in the presumed 2-APB binding pocket. Each data point represents an average of n = 3–7 measurements with error bars representing SEMs. d, e Close-up view of superposition of the 2-APB binding pocket in the TRPV6*2-APB crystal structure (cyan) and the corresponding regions of rat TRPV1 (d) PDB ID: 5IRX, orange and rabbit TRPV2 (e) PDB ID: 5AN8, green. Phosphatidylcholine (PC), cholesterol and 2-APB molecules as well as the side chain of the conserved tyrosine are shown as sticks
(§2) For crystallization experiments, we used the previously developed construct TRPV6*[39], which includes wild-type rat TRPV6 (rTRPV6) residues 1–668 and three point mutations (I62Y, L92N, and M96Q), and the TRPV6*-Y466A construct, which contains an additional point mutation, Y466A. […]
(§3) The intracellular Ca^2+ measurements from HEK 293 cells expressing different TRP channel constructs (see above) were performed similarly to those described previously[39],[49]. […] The cells were subsequently pelleted and washed twice, and then resuspended in modified HBS for fluorescence measurements. Intracellular Ca^2+ was measured by taking the ratio of fluorescence (510 nm) emitted from Fura 2-AM after excitation at either a wavelength of 340 nm (excites Ca^2+ bound Fura 2-AM) or 380 nm (excites Ca^2+ free Fura 2-AM). The excitation wavelength was switched at 1-s intervals. ΔF340/F380 was measured as the difference between baseline F340/F380 ratio recorded before the addition of Ca^2+ (for TRPV6 experiments) or 2-APB (for TRPV1-3) and the maximum F340/F380 after addition of either Ca^2+ or 2-APB. […] All Fura2-AM-based fluorescence measurements were conducted using a QuantaMaster^TM 40 (Photon Technology International) spectrofluorometer at room temperature in a quartz cuvette under constant stirring.

rat TRPV2 (rTRPV2-Y514A) = details: leftward shift of 2-APB concentration dependence; HEK 293 cells, Fura-2
Source text: as §1, §2, §3

rat TRPV1 (rTRPV1-Y554A) = details: leftward shift of 2-APB concentration dependence; HEK 293 cells, Fura-2
Source text: as §1, §2, §3

TRPV5 = details: cited from earlier work
TRPV4 = details: cited from earlier work
rTRPV6-Y466A = rTRPV6-Y466A (Rattus norvegicus, UniProt Q9R186, Y506A); experiment: cell-based
rTRPV6-Y466A, sequence (Q9R186 41-767 Y506A limits assumed): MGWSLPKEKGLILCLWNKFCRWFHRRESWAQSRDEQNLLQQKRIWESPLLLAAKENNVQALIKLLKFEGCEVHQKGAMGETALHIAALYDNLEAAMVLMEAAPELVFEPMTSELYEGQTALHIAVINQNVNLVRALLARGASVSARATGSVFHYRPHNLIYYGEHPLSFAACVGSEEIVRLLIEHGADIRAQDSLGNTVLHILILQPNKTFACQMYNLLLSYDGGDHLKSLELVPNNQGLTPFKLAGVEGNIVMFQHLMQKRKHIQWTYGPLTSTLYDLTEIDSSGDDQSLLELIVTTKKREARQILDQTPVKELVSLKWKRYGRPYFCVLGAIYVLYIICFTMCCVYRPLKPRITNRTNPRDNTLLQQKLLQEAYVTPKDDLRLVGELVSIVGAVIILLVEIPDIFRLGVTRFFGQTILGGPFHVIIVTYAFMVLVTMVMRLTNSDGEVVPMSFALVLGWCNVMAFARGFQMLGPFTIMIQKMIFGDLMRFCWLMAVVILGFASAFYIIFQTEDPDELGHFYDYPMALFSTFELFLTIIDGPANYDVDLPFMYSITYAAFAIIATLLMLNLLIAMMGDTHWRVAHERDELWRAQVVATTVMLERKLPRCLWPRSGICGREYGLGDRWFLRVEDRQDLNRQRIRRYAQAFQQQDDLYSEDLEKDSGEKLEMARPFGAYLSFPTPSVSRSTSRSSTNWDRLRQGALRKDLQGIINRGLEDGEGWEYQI
Source text: (§4) To further characterize the 2-APB binding site and to examine the contribution of individual residues to 2-APB inhibition, we introduced alanine substitutions at residues in the 2-APB binding pocket (E402, H425, Y466, R469, and M602) and tested 2-APB inhibition.
(§5) For crystallization experiments, we used the previously developed construct TRPV6*[39], which includes wild-type rat TRPV6 (rTRPV6) residues 1–668 and three point mutations (I62Y, L92N, and M96Q), and the TRPV6*-Y466A construct, which contains an additional point mutation, Y466A. For calcium uptake measurement experiments, we used TRPV6*, rTRPV6, and rTRPV6 with individual alanine substitutions (rTRPV6-E402A, rTRPV6-H425A, rTRPV6-Y466A, rTRPV6-R469A, and rTRPV6-M602A), wild-type human TRPV6 (hTRPV6), hTRPV6 with a single tyrosine-to-alanine substitution (hTRPV6-Y467A), wild-type rat TRPV1 (rTRPV1), rat TRPV2 (rTRPV2) and mouse TRPV3 (mTRPV3), and their mutant versions with single tyrosine-to-alanine substitutions (rTRPV1-Y554A, rTRPV2-Y514A, and mTRPV3-Y564A, respectively). For cryo-EM experiments, we used hTRPV6 and hTRPV6-Y467A constructs.
(§6) The intracellular Ca^2+ measurements from HEK 293 cells expressing different TRP channel constructs (see above) were performed similarly to those described previously[39],[49]. Briefly, to measure 2-APB-dependent inhibition of TRPV6 activity, cells expressing TRPV6 constructs were suspended in Ca^2+-free buffer and transferred to a quartz cuvette. After an initial 100-s equilibration period, 2-APB was added to the cuvette and incubated for another 100 s, before 2 mM CaCl2 was added. For the TRPV6-E402A mutant, 5 mM instead of 2 mM CaCl2 was added. For intracellular Ca^2+ measurements from HEK 293 cells expressing TRPV1, TRPV2, or TRPV3, the experiments were carried out with prewarmed modified HBS (118 mM NaCl, 4.8 mM KCl, 1 mM MgCl2, 2.5 mM CaCl2, 5 mM D-glucose, 10 mM HEPES pH 7.4). Briefly, HEK 293 cells expressing TRPV1/2/3 channels were centrifuged at 600×g, resuspended in modified HBS containing 5 μg/mL of Fura 2-AM (Life Technologies), and incubated at 37 °C for 45 min. Next, the cells were centrifuged for 5 min at 600×g, resuspended in prewarmed, modified HBS, and incubated again at 37 °C for 20–30 min in the dark. The cells were subsequently pelleted and washed twice, and then resuspended in modified HBS for fluorescence measurements. Intracellular Ca^2+ was measured by taking the ratio of fluorescence (510 nm) emitted from Fura 2-AM after excitation at either a wavelength of 340 nm (excites Ca^2+ bound Fura 2-AM) or 380 nm (excites Ca^2+ free Fura 2-AM). The excitation wavelength was switched at 1-s intervals. ΔF340/F380 was measured as the difference between baseline F340/F380 ratio recorded before the addition of Ca^2+ (for TRPV6 experiments) or 2-APB (for TRPV1-3) and the maximum F340/F380 after addition of either Ca^2+ or 2-APB. Data were normalized to ΔF340/F380 in the absence of 2-APB (for TRPV6 constructs) or the ΔF340/F380 value at saturating concentrations of 2-APB (for TRPV1/2/3). All Fura2-AM-based fluorescence measurements were conducted using a QuantaMaster^TM 40 (Photon Technology International) spectrofluorometer at room temperature in a quartz cuvette under constant stirring.

rTRPV6-R469A = rTRPV6-R469A (Rattus norvegicus, UniProt Q9R186, R509A); experiment: cell-based
rTRPV6-R469A, sequence (Q9R186 41-767 R509A limits assumed): as the sequence (Q9R186 41-767 Y506A limits assumed) above, with A466Y, R469A counted along it
Source text: as §4, §5, §6

rTRPV6-M602A = rTRPV6-M602A (Rattus norvegicus, UniProt Q9R186, M642A); experiment: cell-based
rTRPV6-M602A, sequence (Q9R186 41-767 M642A limits assumed): as the sequence (Q9R186 41-767 Y506A limits assumed) above, with A466Y, M602A counted along it
Source text: as §4, §5, §6

rTRPV6-E402A = rTRPV6-E402A (Rattus norvegicus, UniProt Q9R186, E442A); experiment: cell-based
rTRPV6-E402A, sequence (Q9R186 41-767 E442A limits assumed): as the sequence (Q9R186 41-767 Y506A limits assumed) above, with E402A, A466Y counted along it
Source text: as §4, §5, §6

rTRPV6-H425A = rTRPV6-H425A (Rattus norvegicus, UniProt Q9R186, H465A); experiment: cell-based
rTRPV6-H425A, sequence (Q9R186 41-767 H465A limits assumed): as the sequence (Q9R186 41-767 Y506A limits assumed) above, with H425A, A466Y counted along it
Source text: as §4, §5, §6

wild-type hTRPV6 = wild-type hTRPV6 (Homo sapiens, UniProt Q9H1D0); experiment: cell-based
wild-type hTRPV6, sequence (Q9H1D0 41-765 limits assumed): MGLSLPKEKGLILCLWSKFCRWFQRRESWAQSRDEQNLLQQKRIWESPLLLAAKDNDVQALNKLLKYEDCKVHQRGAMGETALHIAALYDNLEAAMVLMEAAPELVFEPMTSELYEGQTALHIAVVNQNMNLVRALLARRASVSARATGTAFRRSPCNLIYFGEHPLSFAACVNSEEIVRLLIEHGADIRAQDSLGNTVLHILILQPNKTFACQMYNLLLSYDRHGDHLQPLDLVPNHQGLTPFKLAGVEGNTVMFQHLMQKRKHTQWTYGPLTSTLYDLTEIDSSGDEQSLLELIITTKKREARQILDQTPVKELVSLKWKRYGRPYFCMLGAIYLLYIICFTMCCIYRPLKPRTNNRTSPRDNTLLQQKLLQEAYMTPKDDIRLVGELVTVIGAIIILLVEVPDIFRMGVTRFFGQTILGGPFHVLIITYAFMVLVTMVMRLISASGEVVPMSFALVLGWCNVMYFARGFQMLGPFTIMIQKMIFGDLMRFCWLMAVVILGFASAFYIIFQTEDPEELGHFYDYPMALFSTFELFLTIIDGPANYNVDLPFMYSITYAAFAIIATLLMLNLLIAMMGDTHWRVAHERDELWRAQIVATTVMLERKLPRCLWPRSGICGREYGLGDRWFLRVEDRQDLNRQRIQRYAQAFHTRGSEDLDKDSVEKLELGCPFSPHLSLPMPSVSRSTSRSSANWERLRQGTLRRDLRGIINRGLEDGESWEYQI
Description: (§7) Arrows indicate the times when 2-APB and Ca^2+ were added. […] The changes in the fluorescence intensity ratio at 340 and 380 nm (F340/F380) evoked by addition of 2 mM Ca^2+ after preincubation with various concentrations of 2-APB were normalized to the maximal change in F340/F380 after addition of 2 mM Ca^2+ in the absence of 2-APB. […] Error bars represent SEMs
as §5
as §6, with “TRPV1/2/3).” for “TRPV1/2/3). All Fura2-AM-based fluorescence measurements were conducted using a QuantaMaster^TM 40 (Photon Technology International) spectrofluorometer at room temperature in a quartz cuvette under constant stirring.”

hTRPV6-Y467A = hTRPV6-Y467A (Homo sapiens, UniProt Q9H1D0, Y507A); experiment: cell-based
Description: as §7, §5
as §6, with “TRPV1/2/3).” for “TRPV1/2/3). All Fura2-AM-based fluorescence measurements were conducted using a QuantaMaster^TM 40 (Photon Technology International) spectrofluorometer at room temperature in a quartz cuvette under constant stirring.”

[2] = target: TRPV6* (rat TRPV6 residues 1-668, I62Y, L92N, M96Q) (Rattus norvegicus, UniProt Q9R186, I102Y/L132N/M136Q); experiment: cell-based
TRPV6* (rat TRPV6 residues 1-668, I62Y, L92N, M96Q), sequence (Q9R186 1-668 I102Y/L132N/M136Q): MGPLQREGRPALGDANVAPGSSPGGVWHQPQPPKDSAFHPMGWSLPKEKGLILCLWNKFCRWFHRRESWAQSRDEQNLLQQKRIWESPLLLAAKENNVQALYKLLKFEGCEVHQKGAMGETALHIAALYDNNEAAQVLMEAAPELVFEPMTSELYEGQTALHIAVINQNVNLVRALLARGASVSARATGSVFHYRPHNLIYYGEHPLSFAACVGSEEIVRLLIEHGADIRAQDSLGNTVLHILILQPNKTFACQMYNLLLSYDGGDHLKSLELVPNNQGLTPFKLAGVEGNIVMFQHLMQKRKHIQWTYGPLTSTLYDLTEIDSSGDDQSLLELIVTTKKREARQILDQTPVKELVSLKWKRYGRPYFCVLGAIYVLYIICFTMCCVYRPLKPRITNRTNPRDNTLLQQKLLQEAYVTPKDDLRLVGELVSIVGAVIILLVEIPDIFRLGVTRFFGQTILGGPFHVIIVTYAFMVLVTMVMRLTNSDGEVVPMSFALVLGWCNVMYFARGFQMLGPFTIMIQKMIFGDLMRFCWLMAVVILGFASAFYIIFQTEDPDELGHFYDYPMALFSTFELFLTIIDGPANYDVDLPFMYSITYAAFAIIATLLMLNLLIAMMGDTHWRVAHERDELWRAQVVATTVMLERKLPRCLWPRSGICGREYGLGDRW
Description: as §7, §5
as §6, with “TRPV1/2/3).” for “TRPV1/2/3). All Fura2-AM-based fluorescence measurements were conducted using a QuantaMaster^TM 40 (Photon Technology International) spectrofluorometer at room temperature in a quartz cuvette under constant stirring.”

wild-type rTRPV6 = wild-type rTRPV6 (Rattus norvegicus, UniProt Q9R186); experiment: cell-based
wild-type rTRPV6, sequence (Q9R186 41-767 limits assumed): as the sequence (Q9R186 41-767 Y506A limits assumed) above, with A466Y counted along it
Description: as §7, §5
as §6, with “TRPV1/2/3).” for “TRPV1/2/3). All Fura2-AM-based fluorescence measurements were conducted using a QuantaMaster^TM 40 (Photon Technology International) spectrofluorometer at room temperature in a quartz cuvette under constant stirring.”

[3] = target: TRPV6* (rat TRPV6 residues 1-668 with I62Y, L92N and M96Q) (rat) (UniProt Q9R186); experiment: crystal structure; TRPV6* constructs purified in DDM, without or with 1 mM 2-APB or 2-APB-Br; hanging drop, 20 °C, 20-24% PEG 350 MME, 50 mM NaCl, 50 mM Tris-HCl pH 8.0-8.5
[4] = target: the molecule itself; experiment: cryo-EM structure; hTRPV6-Y467A in amphipols, 0.35 mg/ml, without or with 1 mM 2-APB; C4 symmetry imposed
[5] = HEK 293 cells, Fura-2, logistic fit
[6] = HEK 293 cells, Fura-2, logistic fit, mean ± SEM

For NCCOB(c1ccccc1)c1ccccc1 [2-APB, 2-aminoethoxydiphenyl borate], the “increase in 2-APB agonist potency, TRPV3 tyrosine-to-alanine mutant vs wild-type” value [1] was 20 fold, the “increase in 2-APB agonist potency, TRPV2 tyrosine-to-alanine mutant vs wild-type” value (rat TRPV2 (rTRPV2-Y514A)) was 40 fold and the “increase in 2-APB agonist potency, TRPV1 tyrosine-to-alanine mutant vs wild-type” value (rat TRPV1 (rTRPV1-Y554A)) was 3 fold. The “2-APB modulation of TRPV5” value (TRPV5) was “lack of measurable 2-APB modulation”, the “2-APB modulation of TRPV4” value (TRPV4) was “lack of measurable 2-APB modulation” and the IC50 (rTRPV6-Y466A) was 3.62 ± 0.54 µM. For the same molecule, the IC50 (rTRPV6-R469A) was 23.4 ± 1.6 µM, the IC50 (rTRPV6-M602A) was 98 ± 19 µM and the IC50 (rTRPV6-E402A) was 7.5 ± 2.1 µM. The IC50 (rTRPV6-H425A) was 165 ± 32 µM, the IC50 (wild-type hTRPV6) was 274 ± 27 µM and the “maximal inhibition of Ca2+ uptake, wild-type hTRPV6” value (wild-type hTRPV6; [5]) was 72.6 ± 2.7%. The IC50 (hTRPV6-Y467A) was 60 ± 13 µM, the “maximal inhibition of Ca2+ uptake, hTRPV6-Y467A” value (hTRPV6-Y467A; [5]) was 92.4 ± 8.1% and the “increased potency of 2-APB inhibition, hTRPV6-Y467A compared to hTRPV6” value (hTRPV6-Y467A; ratio of IC50 values) was 4.5 fold. The IC50 [2] was 156 ± 20 µM, the “maximal inhibition of Ca2+ uptake, TRPV6*” value [2, 6] was 83.5 ± 2.9% and the IC50 (wild-type rTRPV6) was 184 ± 8 µM. The “maximal inhibition of Ca2+ uptake, wild-type rTRPV6” value (wild-type rTRPV6; [6]) was 93.6 ± 1.1%.

“TRPV6* (rat TRPV6 residues 1-668 with I62Y, L92N and M96Q) (from UniProt Q9R186 1-668) (domain or fragment)” gave a stoichiometry N [3] of 4.

B1: human TRPV6 with a single tyrosine-to-alanine substitution (hTRPV6-Y467A) (natural protein)
chain: MGLSLPKEKGLILCLWSKFCRWFQRRESWAQSRDEQNLLQQKRIWESPLLLAAKDNDVQALNKLLKYEDCKVHQRGAMGETALHIAALYDNLEAAMVLMEAAPELVFEPMTSELYEGQTALHIAVVNQNMNLVRALLARRASVSARATGTAFRRSPCNLIYFGEHPLSFAACVNSEEIVRLLIEHGADIRAQDSLGNTVLHILILQPNKTFACQMYNLLLSYDRHGDHLQPLDLVPNHQGLTPFKLAGVEGNTVMFQHLMQKRKHTQWTYGPLTSTLYDLTEIDSSGDEQSLLELIITTKKREARQILDQTPVKELVSLKWKRYGRPYFCMLGAIYLLYIICFTMCCIYRPLKPRTNNRTSPRDNTLLQQKLLQEAYMTPKDDIRLVGELVTVIGAIIILLVEVPDIFRMGVTRFFGQTILGGPFHVLIITYAFMVLVTMVMRLISASGEVVPMSFALVLGWCNVMAFARGFQMLGPFTIMIQKMIFGDLMRFCWLMAVVILGFASAFYIIFQTEDPEELGHFYDYPMALFSTFELFLTIIDGPANYNVDLPFMYSITYAAFAIIATLLMLNLLIAMMGDTHWRVAHERDELWRAQIVATTVMLERKLPRCLWPRSGICGREYGLGDRWFLRVEDRQDLNRQRIQRYAQAFHTRGSEDLDKDSVEKLELGCPFSPHLSLPMPSVSRSTSRSSANWERLRQGTLRRDLRGIINRGLEDGESWEYQILVPRGSAAAWSHPQFEK
In the case of B1, the “stoichiometry N” value [4] is reported as 4.
